Values quoted from earlier work as cited in patent publication US20220218780A1, “Composition for Improving Vascular Endothelial Function or Improving Blood Flow in Peripheral Blood Vessels” (House Wellness Foods Corporation, priority 2018, published 2022).

Tested on: vascular endothelial function
Details: diabetes rat models, continuous oral administration every day, 30 mg/kg and 300 mg/kg body weight

For COc1cc(/C=C/C(=O)CC(=O)/C=C/c2ccc(O)c(OC)c2)ccc1O [curcumin], the “reduction in vascular endothelial function associated with diabetes” value is given as “improved”.
